What was measured:
[1] = test system: Jurkat (human T lymphocyte cells); test: GFP mRNA delivery (GFP+ cells); assay type: cell-based; details: LNP/mRNA=10/1, [mRNA]=0.86 μg mL^−1, 24 h
Method: To examine the delivery spectrum of the newly developed LNPs, the GFP mRNA loaded OCholB LNPs were then challenged against other four types of cell lines. B16F10 (mouse melanoma cells), HEK 293 (human embryonic kidney cells), NIH 3T3 (mouse embryonic fibroblast cells) and Jurkat (human T lymphocyte cells) cells were tested (LNP/mRNA=10/1; [mRNA]=0.86 μg mL^−1; 24 h exposure) and the results are shown in FIG. 14D. As the positive control, Lpf2k turned out to be very efficient to deliver GFP mRNA into B16F10 (63.2% of GFP^+ cells), HEK 293 (80.1%) and NIH 3T3 (70.1%) cells, while slightly less efficient to Jurkat cell (28.7%), which is usually considered to be one of the most difficult-to-transfect cell lines. […] For example, 63.0%, 60.9%, 54.1% and 50.1% of GFP^+ cells were determined from mRNA/75-OCholB treated B16F10, HEK 293, NIH 3T3 and Jurkat cells; and the numbers for mRNA/76-OCholB treated cells were 70.7%, 75.8%, 24.1% and 7.7%, respectively. It was obvious that not only the types of lipidoids, but also the target cell lines could have huge impacts on the delivery efficacy. Overall, the positive control, Lpf2k, is a relatively high-activity broad-spectrum transfection reagent; most of the OCholB LNPs (6 out of 9) are also effective broad-spectrum transfection reagents under the tested conditions. […] It was expected that through further formulation optimization, such as adding excipients (helper lipids like small molecular phospholipids (e.g. DOPE and DSPC) and macromolecules lipids (e.g. PEG-DSPE and PEG-Ceramide)) into the LNPs and/or using more controllable self-assembly procedures, improved transfection efficiency of the fully substituted OCholB LNPs could be achieved.

[2] = Thiol-triggered size variation of OCholB LNPs (DTT, cysteine; DLS); assay type: physicochemical; details: for increase in averaged hydrodynamic diameter: 24 h; for decrease in size: 20 μM L-cysteine, 6 h of incubation; for increase of relative size: first 2 h
From the text: The thiol-trigged degradation and dissociation of the OCholB LNPs were studied by time-dependent DLS measurements and TEM observation. […] The disruption of the vesicle structure is considered to be resulted from the thiol-exchange and disulfide bond cleavage reactions of OCholB lipidoids. We next investigated whether the thiol-containing molecules (e.g. albumin, cysteine, homocysteine, cysteinylglycine, etc.) in the serum may induce the structural disintegration of these disulfide bond-containing LNPs. The stabilities of LNPs in the presence of 20 μM of L-cysteine (Cys), which mimics the free thiols on the small- and macromolecules presented in the serum, were examined. […] While the degrees of size changes vary between lipidoids with different amine head groups, all lipidoids were more responsive to DTT (modeling intracellular conditions) than to Cysteine (modeling conditions in the blood serum).

GFP-HEK cells = test: Cas9 mRNA and sgRNA delivery, GFP knockout (GFP− cells); assay type: cell-based; details: Cas9 mRNA and sgRNA 1/1; lipidoid/mRNA=10/1; [mRNA]=0.86 μg mL^−1; 48 h
Method: Next, the possibility of using OCholB LNPs to deliver mRNA for genome editing (Cre-loxP and CRISPR/Cas9 systems) purposes was examined. First, Cre mRNA was complexed with OCholB LNPs and tested against HeLa-DsRed cells. The HeLa-DsRed cells express red fluorescent protein, DsRed, only upon Cre protein-mediated recombination. After 24 h of incubation with mRNA/LNPs (lipidoid/mRNA=10/1; [mRNA]=0.86 μg mL^−1), the DsRed^+ cell portions were determined by flow cytometry. […] Then the Cas9 mRNA that expresses a version of Streptococcus pyogenes SF370 Cas9 protein with an N and C terminal nuclear localization signal (NLS) were loaded into LNPs, along with single-guide RNA (sgRNA) that targets a sequence on GFP gene. GFP-HEK cells which steadily express GFP proteins were used a cell model in this case. GFP-cells, indicating a successful Cas9-mediated knockdown of GFP expression, were analyzed using flow cytometry. […] This was also found to be applicable to protein delivery in our previous studies.
In this context, two strategies were tested, i.e., synthesizing new OCholB-tailed lipidoids with single tail rather than full substitution, and adding helper lipids (phospholipids) into fully substituted OCholB LNPs. Single-tailed lipidoids, 75-OCholB-1, 76-OCholB-1 and […] at first following similar protocols as described before and characterized by ESI-MS ([75-OCholB-1+H]^+, 736.55; [76-OCholB-1+H]^+, 734.64; [77-OCholB-1+H]^+, 748.73). Nanoparticles were than fabricated using the same sonication/vortex procedures and the obtained LNPs were measured by DLS (75-OCholB-1, <Dh>=302.6 nm, μ2/I^2=0.30; 76-OCholB-1, <Dh>=294.5 nm, μ2/I^2=0.30; 77-OCholB-1, <Dh>=254.2 nm, μ2/I^2=0.33). […] 69.4%, 72.5% and 68.9% of GFP^+ cells were determined for mRNA/75-OCholB-1, mRNA/76-OCholB-1 and mRNA/77-OCholB-1 treated HeLa cells, respectively. Cre mRNA could also be efficiently delivered into HeLa-DsRed cells, as 87.3% (mRNA/75-OCholB-1), 82.8% (mRNA/76-OCholB-1) and 81.5% (mRNA/77-OCholB-1) of cells were determined to be DsRed^+ after 24 h of exposure (FIG. 14G). […]

HeLa cells = test: Internalization of Nile red loaded nanoparticles (NR+ cells); assay type: cell-based; details: 4 h of exposure

Compound	GFP^+ cells [1]	increase in averaged hydrodynamic diameter ([2]; 10 mM DTT)	GFP^− cells (GFP-HEK cells)	NR^+ cells (HeLa cells)	decrease in size [2]	increase of relative size ([2]; 10 mM DTT)	GFP^+ cells ([1]; listed as mRNA/75-OCholB)	increase in size ([2]; 10 mM DTT, 6 h)
CC(C)CCCC(C)C1CCC2C3CC=C4CC(OC(=O)NCCSSCCOC(=O)CCN(CCC(=O)OCCSSCCNC(=O)OC5CCC6(C)C(=CCC7C6CCC6(C)C(C(C)CCCC(C)C)CCC76)C5)CCN(C)C)CCC4(C)C3CCC12C (stereo not drawn) [Lipidoid 78-OCholB]	particular advantages over Lpf2k	4642.8%	–	–	–	–	–	–
CC(C)CCCC(C)C1CCC2C3CC=C4CC(OC(=O)NCCSSCCOC(=O)CCN(CCC(=O)OCCSSCCNC(=O)OC5CCC6(C)C(=CCC7C6CCC6(C)C(C(C)CCCC(C)C)CCC76)C5)CCN5CCCC5)CCC4(C)C3CCC12C (stereo not drawn) [Lipidoid 76-OCholB]	7.7%	–	7.7%	65.0%	14.6%	498.5%	–	–
CCN(CC)CCN(CCC(=O)OCCSSCCNC(=O)OC1CCC2(C)C(=CCC3C2CCC2(C)C(C(C)CCCC(C)C)CCC32)C1)CCC(=O)OCCSSCCNC(=O)OC1CCC2(C)C(=CCC3C2CCC2(C)C(C(C)CCCC(C)C)CCC32)C1 (stereo not drawn) [Lipidoid 75-OCholB]	particular advantages over Lpf2k	2872.4%	6.1%	85.2%	12.2%	566.4%	50.1%	1315.7%
CC(C)CCCC(C)C1CCC2C3CC=C4CC(OC(=O)NCCSSCCOC(=O)CCN(C)CCN(CCN(C)CCC(=O)OCCSSCCNC(=O)OC5CCC6(C)C(=CCC7C6CCC6(C)C(C(C)CCCC(C)C)CCC76)C5)CCN(C)CCC(=O)OCCSSCCNC(=O)OC5CCC6(C)C(=CCC7C6CCC6(C)C(C(C)CCCC(C)C)CCC76)C5)CCC4(C)C3CCC12C (stereo not drawn) [Lipidoid 304-OCholB]	–	3849.6%	–	–	–	–	–	–
CC(C)CCCC(C)C1CCC2C3CC=C4CC(OC(=O)NCCSSCCOC(=O)CCN(CCC(=O)OCCSSCCNC(=O)OC5CCC6(C)C(=CCC7C6CCC6(C)C(C(C)CCCC(C)C)CCC76)C5)CCC5CCCN5C)CCC4(C)C3CCC12C (stereo not drawn) [Lipidoid 77-OCholB]	particular advantages over Lpf2k	–	4.4%	90.3%	7.2%	1591.4%	–	–
